The record followed here is patent publication US8754051B2, “Peptide modulators of the δPKC interaction with the d subunit of F1Fo ATP synthase/ATPase and uses thereof” (Georgia Regents Research Institute, Inc., priority 2009, dated 2014).

One assay deals with myocardial ATP levels. As to the kind of experiment: Myocardial ATP levels in hearts of streptozotocin-treated rats. As to conditions: hearts 6 weeks after STZ injection (50 mg/kg).
Assay [1] relates to mitochondrial δPKC levels. Put plainly: Mitochondrial δPKC levels (Western blot) in hearts of streptozotocin-treated rats. As to conditions: hearts 6 weeks after STZ injection (50 mg/kg). In general terms: A western blot detects proteins with antibodies after separation by electrophoresis.
Another assay deals with T1, δPKC-dF1Fo co-IP (Rattus norvegicus, UniProt P09215).
T1 construct: endogenous in cells; host or cells: neonatal rat cardiac myocytes (NCMs), isolated mitochondria
Put plainly: δPKC co-immunoprecipitation with dF1Fo in NCM mitochondria after phorbol ester. The class given is cell-based. As to conditions: 100 nM 4-β PMA, 20 min, NCMs. As to the method: FIGS. 1A-1B: Delta protein kinase C (δPKC) co-immunoprecipitates (co-IPs) with the “d” subunit of F1Fo ATP synthase (dF1Fo) following 100 nM 4-β PMA treatment. Neonatal cardiac myocytes (NCMs) were treated with 100 nM 4-α PMA (0 nM in Figure), 3 nM 4-β PMA for 1 hr. or 100 nM 4-β PMA for 20 min. Mitochondria were isolated using Percoll/Optiprep density gradients and then subjected to immunoprecipitations using antisera to dF1Fo. IPs were resolved by […] and transferred onto nitrocellulose paper (NCP) followed by Western blot analyses using antisera against αPKC, δPKC, εPKC and ζPKC. FIG. 1A, representative autoradiographs for each PKC isozyme are shown. FIG. 1B, mean±S.E. densitometry values for three independent myocyte preparations. Asterisks indicate significant differences between 4-α PMA and 3 nM or 100 nM 4-β PMA (p<0.05). # indicates statistically significant differences between 3 and 100 nM 4-β PMA (p<0.05).
Phorbol esters such as 4-β phorbol 12-myristate-13-acetate (4-β PMA), are well known activators of most PKC isozymes and should be useful in determining if one or more PKC isozymes induced effects on the F1Fo complex. […] In FIG. 1, 4-α PMA is shown as “0” concentration and […] values are reported for 3-100 nM concentrations. IPs were next subjected to Western blot analyses with anti-PKC isozyme-selective antisera. […]

For the next assay, the target named is T2, δPKC binding to dF1Fo (Rattus norvegicus, UniProt P09215).
T2 construct: with purified rat brain PKC (mixture of PKC isozymes); from tissue; host or cells: PKC from rat brain; F1Fo ATPase holo-enzyme from adult rat cardiac ventricle
Put plainly: PKC overlay binding assay. As to conditions: overlay with purified PKC isozymes, DG/PS; read-out: IC50 for modulation of δPKC-dF1Fo binding.

For assay [2], the system named is isolated rat hearts, ischemia/reperfusion injury. As to the kind of experiment: Infarct size (TTC staining) after ischemia/reperfusion in isolated rat hearts.
Experimental: Hearts were excised from 2 month-old Sprague-Dawley rats and subjected to Langendorff-mode perfusion with oxygenated Kreb's buffer. Following a 20 min equilibration to attain stable beating hearts either were perfused continuously for 110 minutes (Con) or were subjected to 20 minutes of global no-flow ischemia and then 90 minutes of oxygenated reperfusion (IR). For groups receiving the δPKC-dF1Fo inhibitor or facilitator peptides (complete amino acid sequences shown in FIG. 13) 20 nM concentrations of the peptides were given at the onset of the 90 minute reperfusion period for 20 minutes. At the termination of experimentation atria were removed and ventricles were rapidly washed in chilled Kreb's buffer and partially frozen to facilitate cutting the hearts into sections. […]
Histograms represent mean±S.E. infarction expressed as a percentage of the entire left ventricular area. […]
The effects of the peptides of the present invention on infarct size following IR injury in the Langendorff model was assessed, Hearts were perfused in the absence of peptide, under normoxic conditions for 110 minutes (Con), or were given a 20 minute global, no flow, ischemia exposure followed by normoxic perfusion for 90 minutes. δPKC-dF1Fo modulatory peptides (20 nM) were administered at the onset of reperfusion for 20 minutes. […]

pIC50: −log10 of the molar value. Peptide text beside a SMILES is read from it.

T2 sequence (P09215 whole entry): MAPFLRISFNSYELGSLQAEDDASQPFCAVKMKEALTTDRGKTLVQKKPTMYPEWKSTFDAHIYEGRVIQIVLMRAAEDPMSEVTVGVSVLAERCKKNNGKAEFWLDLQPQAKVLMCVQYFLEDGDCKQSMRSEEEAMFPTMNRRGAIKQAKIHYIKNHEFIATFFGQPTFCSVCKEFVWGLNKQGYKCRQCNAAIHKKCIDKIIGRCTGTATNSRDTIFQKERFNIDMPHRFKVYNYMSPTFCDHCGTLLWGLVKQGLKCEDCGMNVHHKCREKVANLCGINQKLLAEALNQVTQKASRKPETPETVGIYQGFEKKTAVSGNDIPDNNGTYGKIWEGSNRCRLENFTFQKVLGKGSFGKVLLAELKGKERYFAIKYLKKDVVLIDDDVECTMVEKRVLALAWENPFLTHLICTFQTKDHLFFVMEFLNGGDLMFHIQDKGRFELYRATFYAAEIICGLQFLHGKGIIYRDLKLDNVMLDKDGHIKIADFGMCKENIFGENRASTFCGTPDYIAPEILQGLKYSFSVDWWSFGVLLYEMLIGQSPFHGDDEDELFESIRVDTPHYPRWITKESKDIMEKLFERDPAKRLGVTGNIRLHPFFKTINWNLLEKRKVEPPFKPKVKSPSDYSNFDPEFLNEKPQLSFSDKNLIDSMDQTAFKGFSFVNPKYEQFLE
T1 sequence (P09215 whole entry): as above
T1 sequence (P31399 2-161 partner limits assumed): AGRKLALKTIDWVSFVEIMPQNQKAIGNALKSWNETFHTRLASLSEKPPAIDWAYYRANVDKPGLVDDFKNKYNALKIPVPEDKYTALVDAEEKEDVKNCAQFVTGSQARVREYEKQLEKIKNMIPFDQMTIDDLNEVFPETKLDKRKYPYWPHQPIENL

Take `CN(N=O)C(=O)N[C@H]1C(O)O[C@H](CO)[C@@H](O)[C@@H]1O` (mixture of isomers) [STZ, streptozotocin]: the “decrease of myocardial ATP levels” value with myocardial ATP levels is listed as 2.3±0.1 fold. For the same compound, the “increase in mitochondrial δPKC levels” value in assay [1] was “greater than 10 fold”.
Consider `CCCCCCCCCCCCCC(=O)O[C@@H]1[C@@H](C)[C@@]2(O)[C@@H](C=C(CO)C[C@]3(O)C(=O)C(C)=C[C@@H]23)[C@@H]2C(C)(C)[C@]12OC(C)=O` [4-β PMA, 4-β phorbol 12-myristate-13-acetate], for which the “increase of δPKC-dF1Fo co-IP above 3 nM 4-β PMA-induced levels” value on δPKC-dF1Fo co-IP stood at 3.4±0.3 fold.
One may read the pIC50 as the IC50 on a negative log10 scale, so that one unit is a factor of ten. Consider `CC[C@H](C)[C@H](NC(=O)[C@@H](NC(=O)[C@H](CCCCN)NC(=O)[C@H](CC(C)C)NC(=O)[C@H](C)NC(=O)[C@H](CC(C)C)NC(=O)[C@H](CCCCN)NC(=O)[C@H](CCCNC(=N)N)NC(=O)CNC(=O)[C@H](C)N)[C@@H](C)O)C(=O)N[C@@H](CC(=O)O)C(=O)N[C@@H](Cc1c[nH]c2ccccc12)C(=O)N[C@H](C(=O)N[C@@H](CO)C(=O)N[C@@H](Cc1ccccc1)C(=O)O)C(C)C` [SEQ ID NO: 1, AGRKLALKTIDWVSF] (H-AGRKLALKTIDWVSF-OH; N-terminus and C-terminus assumed), for which the pIC50 on δPKC binding to dF1Fo was approximately 3.52.
The same measure, in the same setting: under `CC[C@H](C)[C@H](NC(=O)[C@H](CCSC)NC(=O)[C@H](CC(N)=O)NC(=O)[C@H](CCCCN)NC(=O)[C@@H](NC(=O)[C@H](CCCCN)NC(=O)[C@H](CCC(=O)O)NC(=O)[C@H](CC(C)C)NC(=O)[C@H](CCC(N)=O)NC(=O)[C@H](CCCCN)NC(=O)[C@H](CCC(=O)O)NC(=O)[C@H](Cc1ccc(O)cc1)NC(=O)[C@H](CCC(=O)O)NC(=O)[C@H](CCCNC(=N)N)NC(=O)[C@@H](NC(=O)[C@@H](N)CCCNC(=N)N)C(C)C)[C@@H](C)CC)C(=O)O` [SEQ ID NO: 2, RVREYEKQLEKIKNMI] (H-RVREYEKQLEKIKNMI-OH; N-terminus and C-terminus assumed) stands approximately 3.52.
For “YGRKKRRQRRR-MLATRALSLIGKRAISTSVC-RVRE YEKQLEKIKNMI-DYKDDDDK (YGRKKRRQRRRMLATRALSLIGKRAISTSVCRVREYEKQLEKIKNMIDYKDDDDK; sequence of mitochondrial-targeted facilitator of dPKC-dF1Fo interaction) [PKC-dF1Fo agonist peptide]”, in assay [2], the enhancement of infarction turned out to be 27±3%.
